From US5474993A, “Lactam inhibitors of cholesterol esterase” (Sterling Winthrop, Inc., priority 1994, dated 1995)

Molecular target: T1, pancreatic cholesterol esterase (PCEH) (Homo sapiens, UniProt P19835)
T1 sequence (P19835 21-753): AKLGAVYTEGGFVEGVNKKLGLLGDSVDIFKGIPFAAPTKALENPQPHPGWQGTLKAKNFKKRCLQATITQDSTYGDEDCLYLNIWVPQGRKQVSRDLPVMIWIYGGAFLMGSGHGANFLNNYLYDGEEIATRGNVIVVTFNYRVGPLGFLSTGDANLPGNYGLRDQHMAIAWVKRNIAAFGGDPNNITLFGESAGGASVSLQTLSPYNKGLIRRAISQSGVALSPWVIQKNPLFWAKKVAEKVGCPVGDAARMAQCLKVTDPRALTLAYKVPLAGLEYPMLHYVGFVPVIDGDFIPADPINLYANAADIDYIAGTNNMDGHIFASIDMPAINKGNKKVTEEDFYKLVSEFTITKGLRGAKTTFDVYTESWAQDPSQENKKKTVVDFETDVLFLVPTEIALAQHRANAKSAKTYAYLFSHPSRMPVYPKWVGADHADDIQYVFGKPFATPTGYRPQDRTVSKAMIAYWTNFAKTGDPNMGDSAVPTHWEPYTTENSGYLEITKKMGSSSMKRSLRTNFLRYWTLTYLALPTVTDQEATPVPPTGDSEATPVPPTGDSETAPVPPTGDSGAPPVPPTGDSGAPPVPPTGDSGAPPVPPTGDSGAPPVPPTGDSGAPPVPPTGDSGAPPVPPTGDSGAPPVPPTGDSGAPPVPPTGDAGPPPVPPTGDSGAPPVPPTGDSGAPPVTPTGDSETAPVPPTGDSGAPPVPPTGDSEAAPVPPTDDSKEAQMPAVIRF
Experiment: KM estimation for PNPA substrate
Type: biochemical
Conditions: nonlinear fit to the rate-progress curve
Protocol: Purified pancreatic cholesterol esterase or ester hydrolase (PCH), shown by SDS-acrylamide and isoelectric focusing electrophoresis to be homogeneous,is used in a fresh solution of 90 mM (PNPA) in methanol.
First an initial screen is conducted as follows: to determine the effect of an inhibitor on the rate of enzyme catalyzed hydrolysis of PNPA, enzyme and inhibitor are first incubated at room temperature for ten minutes. Following incubation, enough PNPA substrate to give a final concentration of 0.225 mM is added. The rate of PNPA hydrolysis is monitored by observing an increase of absorption at 405 nm over the course of ten minutes. On average, the concentration of inhibitor is 1300-fold greater than that of the enzyme inhibitor concentrate. The maximum solubility of PNPA of approximately twice the value of Km, limited the accuracy the KM determination for the PNPA substrate. The estimated KM based on a nonlinear fit to the rate-progress curve is KM ~1 mM. With this estimate the substrate concentration used in the screen was approximately 0.25 KM.

estimated KM: ~ 1 mM
Structure (SMILES): CC(=O)Oc1ccc([N+](=O)[O-])cc1 [PNPA, p-nitrophenyl acetate]
